Test results reported in PubChem BioAssay (NCI).
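Each compound was tested at five concentrations against cells in 96-well plates for 48 hours. TGI marks complete inhibition of growth.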

What was measured:
Assay in all cases: NCI tumour cell line growth inhibition, 48 h
[1] = test system: DMS 273 small cell lung
[2] = test system: RXF-631 renal
[3] = test system: SNB-78 CNS
[4] = test system: XF 498 CNS
[5] = test system: BT-549 breast
[6] = test system: MCF7 breast
[7] = test system: P388 leukemia
[8] = test system: P388/ADR leukemia
[9] = test system: SN12K1 renal

Structure (SMILES)	TGI [1] [µM]	TGI [2] [µM]	TGI [3] [µM]	TGI [4] [µM]	TGI [5] [µM]	TGI [6] [µM]	TGI [7] [µM]	TGI [8] [µM]	TGI [9] [µM]
Cc1nc(-c2cccnc2)sc1C(=O)/C=C/c1cccc([N+](=O)[O-])c1	> 100	> 100							
N#Cc1c(-c2ccco2)cc(-c2ccccc2)[nH]c1=O	> 100	> 100	> 100						
Cc1ccc(C)c(N2C(=O)C(=O)C(c3nc4ccccc4s3)C(=Nc3cccc4c(=O)[nH][nH]c(=O)c34)C2=O)c1 (stereo unspecified)	> 100	> 100							
Cc1ccccc1/C=C/C(=O)c1ccccc1	61.2	42.5	39.2	30.8					
CC(C)(C)OC(=O)NC1CCCC1=O (stereo unspecified)	> 100	> 100	> 100	> 100					
COC(=O)C1C(=O)N(CCc2c[nH]c3ccccc23)C[C@@H]2CCC(=O)C[C@H]12 (stereo partly specified)	> 100	> 100	> 100	> 100					
COc1cc(C2c3cc4c(cc3[C@@H](Nc3ccc5c(c3)OCCO5)C3COC(=O)[C@H]23)OCO4)cc(OC)c1O (stereo partly specified)	1.87	3.51	> 34.2	5.89	16.4	> 100	1.26	1.25	9.19
Cc1c(C(=O)/C=C/c2ccccc2[N+](=O)[O-])[n+](=O)c2ccccc2n1[O-]	16.8	23.9	70.7						
O=S1CSSC1	25.1	29.8	62	50.1					
C=C1C2Oc3ccccc3C1N(c1ccccc1)O2 (stereo unspecified)		45.6		43.5					
C[C@]12C/C(=C/O)C(=O)C(O)=C1CC[C@@H]1C2CC[C@@]2(C)C1CC[C@@H]2O (stereo partly specified)	51.1	48.8	47.3	33					
CCCCCCC(C)CCCCCCCCCCC(=O)O (stereo unspecified)	> 100	> 100		> 100					
COc1cc(CNc2nc3ccc(C(F)(F)F)cc3nc2-c2ccccc2)cc(OC)c1OC	> 100	> 100	> 100	> 100					
O=c1[nH]c2cc([N+](=O)[O-])ccc2nc1/C(=N\Nc1ccccc1)C(O)c1ccc2c(c1)OCO2 (stereo unspecified)	> 100	> 100	> 100						
CC1(O)CCn2c(=O)c3cc4ccccc4cc3c(=O)n2C1O (stereo unspecified)	> 100	> 100							
CCOC(OC1=C(C#N)CCCC1)C(CC)[Se]c1ccccc1 (stereo unspecified)	24.9	26.2	89.7	46.5					
CC(=O)n1c(=O)c2cc3c(=O)n(-c4cccc(C#N)c4)c(=O)c3cc2c1=O	> 100	> 100	> 100						
Cn1c(=O)nc2n(-c3ccc(Cl)c(C(F)(F)F)c3)c3ccccc3nc-2c1=O	> 100		> 100	> 78.1					
Cc1cccc(N(CC(=O)O)S(=O)(=O)c2ccccc2)c1	> 100	> 100		> 100					
